Assay results published in patent US20040009485A1, “Cellular arrays for the identification of altered gene expression” (priority 2002, published 2004).

Legend:
luxCDABE gene fusions = assay: Retest of nalidixic acid upregulated gene fusions in liquid medium; type: cell-based, E. coli; conditions: for Liquid expt. NA/LB t = 2 hr: at conc of max induction; for # of conc with >1.5 fold up: seven conc 80-1.2 μg/ml
Experimental: Several concentrations of nalidixic acid were used because the differences in responses between liquid and solid growth were not known. Light production of 100 μl duplicate cultures at 37° C. was quantitated using a 96 well plate luminometer (Luminoskan Ascent, Labsystems). […] It should be noted that the liquid medium tests were not corrected for growth inhibition by nalidixic acid.

[1] = system: luxCDABE gene fusions in lexAind host; assay: Mitomycin C and nalidixic acid responses in lexAind host; type: cell-based, E. coli; conditions: for NA Ratio, 2 hr 10 ug/ml: lexAind host
Experimental: In addition, the effect of a lexAind mutation was tested to determine if any of these were part of the SOS regulon. The expectation is that SOS regulon member will be induced by both nalidixic acid and mitomycin C in a manner that is dependent on lexA function (Walker, G. C., (1996) Escherichia coli and Salmonella: Cellular and Molecular Biology ASM Press). […] This is consistent with the observation of upregulation of the b1728 mRNA transcript upon mitomycin C treatment in a LexA dependent fashion (Fernández de Henestrosa et al. (2000). Mol. Microbiol. 35:1560-1572). Likewise, two Gene fusions, those to oraA and yigN were identified is new members of the SOS regulon (Table 16). […] Negative, non-DNA damage responsive gene fusions were also included (Table 16).

[2] = system: Luxarray 0.5 reporter clones; assay: Luxarray 0.5 solid phase perturbation with nalidixic acid (luminometer); type: cell-based, E. coli; conditions: 1 and 5 μg/ml plates, 2 hrs
Experimental: A solid phase assay system consisting of reporter clones growing in the presence or absence of a perturbation, biological, environmental was developed. This was accomplished by growing the reporters on a porous membrane (Biodyne B, Nunc) seated on top of solid growth media in a culture dish (OmniTray, Nunc). Luminescence was measured either by a luminometer or by creating an image of the entire culture and quantitating the pixel density. Effects of perturbants can be determined by comparison of luminescence generated by treated and control cultures. Growth on the surface of the membrane allows the reporter assay to be moved between conditions as required. […]
Membranes were sterilized with UV illumination for 10 min then placed in contact with prewarmed media in a culture dish. […] Luminescence data was collected for each spot for 40 cycles of 20 min duration (overnight). […] Without exception, the signal strength measured corroborated the data obtained in liquid culture. […]
Next the system was evaluated for its ability to determine responses to perturbation, in this case, DNA damage caused by nalidixic acid Parental clone and two nonresponding reporters, osmY, and lacZYA, and three DNA damage responsive reporters, uvrA, recA, dinG, were chosen. […] The membranes were moved to new, pre-warmed plates containing varying amounts of nalidixic acid and light readings collected with an ML3000 luminometer. […]

[3] = system: uhpT-luxCDABE gene fusion (E. coli strain DPD3228); assay: Verification of uhpT-lux upregulation by limonene; type: cell-based; conditions: late response, maximal at highest conc, also detected at 40% or 20% of saturating amounts (FIG. 10)
Experimental: E. coli strain DPD3228 is identical to lux-a.pk034.b9 the strain containing the uhpT-luxCDABE gene fusion. This strain was grown overnight at 37° C. in LB medium containing 100 μg/ml ampicillin and diluted the following day into LB medium and grown to log phase at 37° C. 20 μl aliquots of this culture were added to 80 μl of LB medium saturated with limonene, to 80 μl of a series of two fold dilutions into LB medium of LB saturated with limonene, and to 80 μl of LB medium. Light production was measured in a Luminoskan Ascent (Labsystems) microplate luminometer at 37° C. […] Similar to the initial LuxArray observations, a late response to the presence of limonene was observed. This response was maximal at the highest concentration of limonene tested, but was also detected when limonene was present at 40% or 20% of saturating amounts in LB medium.

[4] = 1pxA 1pxB rnhB dnaE fusion (lux-a.pk061.c3)
[5] = dinG ybiB fusion (lux-a.pk0024.f5)
[6] = frvR frvX frvB frvA fusion (lux-a.pk046.e6)
[7] = yfhJ fdx hscA yfhE fusion (lux-a.pk0019.g2)

## CCn1cc(C(=O)O)c(=O)c2ccc(C)nc21 [Nalidixic acid, nalidixic acid]
luxCDABE gene fusions; [4]
  Nal conc of max induction in liquid: 2.5 µg/mL
  Liquid expt. NA/LB t = 2 hr: 1.82
  # of conc with >1.5 fold up: 3
luxCDABE gene fusions; b1728 fusion (lux-a.pk033.c5)
  Nal conc of max induction in liquid: 5 µg/mL
  Liquid expt. NA/LB t = 2 hr: 3.67
  # of conc with >1.5 fold up: 7
luxCDABE gene fusions; b1936 fusion (lux-a.pk0019.g1)
  Nal conc of max induction in liquid: 10 µg/mL
  Liquid expt. NA/LB t = 2 hr: 2.34
  # of conc with >1.5 fold up: 6
luxCDABE gene fusions; [5]
  Nal conc of max induction in liquid: 5 µg/mL
  Liquid expt. NA/LB t = 2 hr: 4.18
  # of conc with >1.5 fold up: 6
luxCDABE gene fusions; dinP fusion (lux-a.pk055.a3)
  Nal conc of max induction in liquid: 5 µg/mL
  Liquid expt. NA/LB t = 2 hr: 7.60
  # of conc with >1.5 fold up: 7
luxCDABE gene fusions; [6]
  Nal conc of max induction in liquid: 20 µg/mL
  Liquid expt. NA/LB t = 2 hr: 1.46
  # of conc with >1.5 fold up: 0
luxCDABE gene fusions; fusion (lux-a.pk0015.d6)
  Nal conc of max induction in liquid: 20 µg/mL
  Liquid expt. NA/LB t = 2 hr: 2.71
  # of conc with >1.5 fold up: 6
luxCDABE gene fusions; oraA fusion (lux-a.pk058.f5)
  Nal conc of max induction in liquid: 10 µg/mL
  Liquid expt. NA/LB t = 2 hr: 7.19
  # of conc with >1.5 fold up: 7
luxCDABE gene fusions; yaaF fusion (lux-a.pk031.e7)
  Nal conc of max induction in liquid: 2.5 µg/mL
  Liquid expt. NA/LB t = 2 hr: 1.85
  # of conc with >1.5 fold up: 3
luxCDABE gene fusions; [7]
  Nal conc of max induction in liquid: 1.2 µg/mL
  Liquid expt. NA/LB t = 2 hr: 1.02
  # of conc with >1.5 fold up: 0
luxCDABE gene fusions; yigN fusion (lux-a.pk046.f11)
  Nal conc of max induction in liquid: 1.2 µg/mL
  Liquid expt. NA/LB t = 2 hr: 2.54
  # of conc with >1.5 fold up: 5
[1]; [4]
  NA Ratio, 2 hr 10 ug/ml: 2.39
[1]; b1728 fusion (lux-a.pk033.c5)
  NA Ratio, 2 hr 10 ug/ml: 0.40
[1]; b1936 fusion (lux-a.pk0019.g1)
  NA Ratio, 2 hr 10 ug/ml: 1.55
[1]; [5]
  NA Ratio, 2 hr 10 ug/ml: 0.97
[1]; fusion (lux-a.pk0015.d6)
  NA Ratio, 2 hr 10 ug/ml: 2.29
[1]; lacZ fusion (65.d4), negative control
  NA Ratio, 2 hr 10 ug/ml: 1.05
[1]; lexAind host strain (FIG. 9)
  induction of b1728 promoter-luxCDABE fusion: not induced
[1]; oraA fusion (lux-a.pk058.f5)
  NA Ratio, 2 hr 10 ug/ml: 1.06
[1]; yaaF fusion (lux-a.pk031.e7)
  NA Ratio, 2 hr 10 ug/ml: 1.19
[1]; yciG fusion (lux-a.pk006.b4), negative control
  NA Ratio, 2 hr 10 ug/ml: 0.67
[1]; yigN fusion (lux-a.pk046.f11)
  NA Ratio, 2 hr 10 ug/ml: 0.59
[2]; SOS regulon reporters uvrA, recA, dinG
  bioluminescence on solid medium: increased bioluminescence
[2]; non-DNA damage responsive fusions osmY and lacZYA
  bioluminescence on solid medium: unaffected

## C=C(C)[C@H]1CC=C(C)CC1 [limonene]
[3]
  upregulation of bioluminescence of uhpT-luxCDABE strain: upregulation of bioluminescence from this strain by limonene was confirmed
